One data set concerns human keratinocytes. The data set is described as follows: in vitro gene expression analysis (RNA sequencing) in keratinocytes. Format: cell-based. The following applies: 72 hrs, mandelic acid 0.05%. An excerpt: Genes were annotated using the Reactome Database.
For data set [1], the system named is human primary adult dermal fibroblasts and human primary adult dermal keratinocytes. The note with it: 24 h.
Protocol: To determine suitable dosing of Centella asiatica extract and mandelic acid, human primary adult dermal fibroblasts and human primary adult dermal keratinocytes were purchased from ZenBio (https://www.zen-bio.com/, Durham, NC) and plated as per the provided ZenBio protocols in the recommended media from ZenBio.
Approximately 10k cells were plated per well in each well of a 96-well plate. […] Centella asiatica extract concentrations ranged from 0.00025% to 0.25%, in 2× steps. […] After 24 hours of treatment, an alamar blue assay was performed. The plate was then read in an Envision plate reader with 560 nm excitation and 590 nm emission filters to determine cell viability.
Where [2] appears, read: human keratinocytes grown to confluence, Centella asiatica extract 0.005%, combination same concentrations, vs untreated cells.

As for `O=C(O)C(O)c1ccccc1` (stereo not drawn) [Mandelic Acid, mandelic acid], in the data set on human keratinocytes (setting [2]), the “Modulation of Gene Expression (Fold Change): CEBPB” value is given as −2.45 Fold Change, the “Modulation of Gene Expression (Fold Change): HIST1H2BD” value was determined as 0.55 Fold Change, the “Modulation of Gene Expression (Fold Change): HIST1H2BG” value is given as 0.45 Fold Change and the “Modulation of Gene Expression (Fold Change): HIST1H3D” value was −0.23 Fold Change. In addition, in the data set on human keratinocytes (setting [2]), the “Modulation of Gene Expression (Fold Change): HIST1H4E” value was determined as 0.60 Fold Change, the “Modulation of Gene Expression (Fold Change): HIST1H4H” value is reported as −0.54 Fold Change, the “Modulation of Gene Expression (Fold Change): IL1B” value was determined as 1.73 Fold Change and the “Modulation of Gene Expression (Fold Change): IL8” value was −1.46 Fold Change. Also, in the data set with human keratinocytes (setting [2]), the “Modulation of Gene Expression (Fold Change): TNF” value was −2.69 Fold Change, the “Modulation of Gene Expression (Fold Change): UBB” value is listed as −3.87 Fold Change, the “Modulation of Gene Expression (Fold Change): UBC” value is −1.09 Fold Change and the “Modulation of Gene Expression (Fold Change): UBE2C” value was found to be 0.51 Fold Change. Also, the “expression of p15 (CDKN2B)” value with human keratinocytes (human keratinocytes, Centella 0.005%, FIG. 5) was “upregulate”. Moreover, the “pro-inflammatory gene expression (MMP2, HSPA8, CSF2RA, CXCL1, IL2RB, NFKBIA, PTG52)” value in the data set on human keratinocytes (human keratinocytes, Centella 0.005%, FIGS. 4A-4G) was “significantly downregulated”. In addition, in data set [1], the “highest concentration not resulting in cytotoxicity” value amounted to 0.05%.

Values taken from patent US20250352464A1, “TOPICAL COMPOSITIONS AND METHODS FOR TREATING DERMATOPOROSIS” (GALDERMA HOLDING SA, priority 2023, published 2025).
